Consider six compounds from patent US8329739B2, “Phenylimidazole compounds” (Otsuka Pharmaceutical Factory, Inc., priority 2009, dated 2012).

SMILES strings stand for the structures. Some results are limits rather than exact numbers.

The nature of series [1]: Body weight gain-inhibiting effect in normal SD rats. As to conditions: Rattus norvegicus, po, 100 mg/kg orally every day for 5 days or 2 weeks, vs control group, read-out: Rate of inhibition of body weight gain (%). The class given is in vivo. The procedure:
(§1) 8-week-old SD rats (Japan Charles River: average body weight of about 350 g) were used. 5% aqueous gum arabic suspension, which was prepared such that the dosage of a compound of the present invention was 100 mg/kg body weight, was orally administered to the experimental group in an amount of 5 ml/kg body weight. 5% aqueous gum arabic suspension (not containing any compounds of the present invention) was orally administered to the control group in an amount of 5 ml/kg body weight. The rats were grouped according to their body weight at 8 weeks of age such that each group had 5 rats. The test compounds were orally administered every day at a fixed time for 5 days or 2 weeks, starting when the rats were 9 weeks old. Body weight was regularly measured during the period of oral administration, and the body weight gain-inhibiting effect was observed. 4 hours after the final administration of the test compound, blood was collected from the vein, plasma was separated from the collected blood, and blood biochemical examinations (triglyceride, HDL-cholesterol) were carried out.
The rate of inhibition of body weight gain (%) was calculated from the measured body weights of rats in the control group and the experimental group, according to the following formula. […] Rate of inhibition of body weight gain (%)=[(mean value of the control group)−(mean value of the experimental group)]/(mean value of the control group)×100

A short description of series [2]: Lipid-improving action in SD rats: blood biochemical examinations (triglyceride, HDL-cholesterol). The class given is in vivo. As to conditions: Rattus norvegicus, po, 100 mg/kg orally every day for 5 days or 2 weeks, plasma 4 hours after final administration, vs control group, read-out: Rate of increase in HDL-cholesterol levels (%). The method, then:
as §1
Blood biochemical examinations of rats in the control group and the experimental group were performed. The rates of change (%) were calculated according to the following formulae from the measured values obtained from the blood biochemical examinations. […] Rate of decrease in triglyceride levels (%)=[(mean value of the control group)−(mean value of the experimental group)]/(mean value of the control group)×100 Rate of increase in HDL-cholesterol levels (%)=[(mean value of the experimental group)−(mean value of the control group)]/(mean value of the control group)×100

The target in series [3] is T1, LPL (lipoprotein lipase) (Homo sapiens, UniProt P06858).
T1 construct: endogenous in cells; host or cells: human skeletal muscle myoblasts, differentiated
T1 sequence (P06858 28-475): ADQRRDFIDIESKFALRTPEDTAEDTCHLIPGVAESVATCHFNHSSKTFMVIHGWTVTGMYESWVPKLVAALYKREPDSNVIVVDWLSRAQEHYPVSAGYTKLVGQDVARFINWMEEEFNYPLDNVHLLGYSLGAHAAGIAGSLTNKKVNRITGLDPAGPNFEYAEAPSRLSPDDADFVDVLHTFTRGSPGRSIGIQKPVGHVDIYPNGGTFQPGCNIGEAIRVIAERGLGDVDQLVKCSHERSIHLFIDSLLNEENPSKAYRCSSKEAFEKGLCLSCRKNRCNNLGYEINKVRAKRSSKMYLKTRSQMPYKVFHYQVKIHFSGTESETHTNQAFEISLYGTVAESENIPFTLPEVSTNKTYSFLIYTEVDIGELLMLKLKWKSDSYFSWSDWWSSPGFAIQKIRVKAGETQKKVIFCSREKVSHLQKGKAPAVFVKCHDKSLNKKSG
Description: Confirmation test of LPL activation effect in human skeletal muscle cells. The format is cell-based. As to conditions: 8 hours exposure, vs control group. The procedure:
Human skeletal muscle cells (human skeletal muscle myoblasts) or mouse skeletal muscle cells (C2C12 cells) that were seeded onto plates, cultured, and differentiated were exposed to a 0.3% dimethyl sulfoxide-containing culture medium in which the compound of the present invention was dissolved (concentration: 10 μM or 30 μM). The medium was removed 8 hours after exposure, 10 mM of Tris-HCl buffer (150 mM NaCl, 10 μ/mL; containing heparin sodium) was added to the cells, and the cells were incubated at 37° C. in the presence of 5% CO2 for 10 minutes. LPL activity in the supernatant was measured using an LPL activity assay kit (made by Roar Biomedical Inc.). LPL activity was evaluated based on the increase in fluorescence intensity 10 to 70 minutes after mixing the supernatant with the LPL substrate. The mean value of the increase in fluorescence intensity of the cells exposed to a 0.3% dimethyl sulfoxide-containing culture medium […] was used as mean value of the control group. Note that the compounds of Examples 18, 19, 32, 45 and 57 were tested using human skeletal muscle cells, and other compounds were tested using mouse skeletal muscle cells. The rate of increase (%) was calculated from the measured values of LPL activity in the control group and the experimental group, according to the following formula. Rate of increase in LPL activity (%)=[(mean value of the experimental group)−(mean value of the control group)]/(mean value of the control group)×100

Series [4] in a line: Confirmation test of anti-obesity action in dietary-obese mice. The format is in vivo. Conditions: AKR/J mice on high-fat diet (60% kcal fat), 20 mg/kg orally every day for 4 weeks, vs control group. The method, then:
AKR/J mice were used. These mice were fed a high-fat diet with 60% kcal fat, and a model of dietary obesity was developed. 5% aqueous gum arabic suspension, which was prepared such that the dosage of a compound of the present invention was 20 mg/kg body weight, was orally administered to the experimental group of obese mice in an amount of 5 ml/kg body weight. […] The mice were grouped according to body weight. The test suspension was administered everyday at a fixed time for 4 weeks. Body weight was measured during the period of oral administration, and the body weight gain-inhibiting effect was confirmed. The rate of body weight reduction (%) was calculated from the measured body weights of mice in the control group and the experimental group, according to the following formula. […] Rate of body weight reduction (%)=[(mean value of the control group)−(mean value of the experimental group)]/(mean value of the control group)×100

The target in series [5] is T2, LPL (lipoprotein lipase) (Mus musculus, UniProt P11152).
T2 construct: endogenous in cells; host or cells: C2C12 cells, differentiated
T2 sequence (P11152 28-474): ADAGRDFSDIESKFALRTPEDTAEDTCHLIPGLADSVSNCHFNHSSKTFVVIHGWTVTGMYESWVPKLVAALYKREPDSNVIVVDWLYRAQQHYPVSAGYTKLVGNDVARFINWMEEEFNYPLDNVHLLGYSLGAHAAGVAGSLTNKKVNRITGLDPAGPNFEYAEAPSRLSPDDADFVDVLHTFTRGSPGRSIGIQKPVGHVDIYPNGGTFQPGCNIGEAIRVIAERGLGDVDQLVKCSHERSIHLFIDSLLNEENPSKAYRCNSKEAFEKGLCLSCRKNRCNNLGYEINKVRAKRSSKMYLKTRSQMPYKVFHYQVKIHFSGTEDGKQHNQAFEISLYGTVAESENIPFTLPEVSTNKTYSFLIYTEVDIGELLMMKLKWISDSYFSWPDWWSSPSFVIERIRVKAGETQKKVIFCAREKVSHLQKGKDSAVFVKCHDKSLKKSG
Kind of series: Confirmation test of LPL activation effect in mouse skeletal muscle cells (C2C12 cells). The format is cell-based. Conditions: 8 hours exposure, vs control group. In a few lines: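 Differentiated human skeletal muscle myoblasts or mouse C2C12 cells were exposed to compound at 10 μM or 30 μM in 0.3% DMSO medium for 8 h, then LPL was released with heparin-containing Tris-HCl buffer (10 min, 37° C). Supernatant LPL activity was taken as the fluorescence increase 10–70 min after adding substrate; % increase is calculated versus the DMSO control mean.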

In turn, `COc1cc(OCc2ccc(Br)cc2F)ccc1-c1c[nH]c(-c2ccc(C(F)(F)F)cc2)n1` [Example 18] yielded a melting point of 167 to 170 °C. Also, the inhibition in vivo at 100 mg/kg in series [1] came to 13%. Moreover, the change in vivo at 100 mg/kg in series [2] is 171%. Further, the “Rate of increase in LPL activity” value on LPL (lipoprotein lipase) [3] (amount of addition 10 μM) turned out to be 23%. The “Rate of increase in LPL activity” value at LPL (lipoprotein lipase) [3] (amount of addition 30 μM) turned out to be 23%.
Turning to `COc1cc(OCc2ccc(Cl)cc2)ccc1-c1c[nH]c(-c2ccc(C(F)(F)F)cc2)n1` [Example 19], the melting point was 158 to 162 °C. The inhibition in vivo at 100 mg/kg in series [1] was found to be 11%. Also, the change in vivo at 100 mg/kg in series [2] is 99%. The “Rate of increase in LPL activity” value at LPL (lipoprotein lipase) [3] (amount of addition 10 μM) came out at 24%. Further, the “Rate of increase in LPL activity” value on LPL (lipoprotein lipase) [3] (amount of addition 30 μM) amounted to 28%.
Compound `COc1cc(OCc2ccc(Br)cc2F)ccc1-c1c[nH]c(-c2cccs2)n1.Cl` [Example 23] displayed a melting point of 249 to 253 °C. Moreover, the “Rate of body weight reduction (%)” value in series [4] was 13%. Besides, the “Rate of increase in LPL activity” value on LPL (lipoprotein lipase) [5] (amount of addition 10 μM) came out at 40%. Also, on LPL (lipoprotein lipase) [5] (amount of addition 30 μM), the “Rate of increase in LPL activity” value is reported as 95%.
Take `COc1cc(-c2c[nH]c(-c3ccc(C(F)(F)F)cc3)n2)ccc1OCc1ccc(Cl)cc1` [Example 32]: the melting point lay within 158 to 159 °C. In addition, in series [1], the inhibition in vivo at 100 mg/kg turned out to be 8%. Moreover, in series [2], the change in vivo at 100 mg/kg came out at 16%. Moreover, in series [4], the “Rate of body weight reduction (%)” value was determined as 11%. Moreover, on LPL (lipoprotein lipase) [3] (amount of addition 10 μM), the “Rate of increase in LPL activity” value is listed as 22%. The “Rate of increase in LPL activity” value on LPL (lipoprotein lipase) [3] (amount of addition 30 μM) stood at 57%.
Turning to `COc1cc(OCc2ccc(C#N)cc2)ccc1-c1c[nH]c(-c2ccc(F)cc2)n1.Cl` [Example 45], the melting point fell in the range of 189 to 191 °C. In addition, in series [1], the inhibition in vivo at 100 mg/kg is 12%. Further, in series [2], the change in vivo at 100 mg/kg stood at 27%. Also, in series [4], the “Rate of body weight reduction (%)” value is 11%. Besides, on LPL (lipoprotein lipase) [3] (amount of addition 10 μM), the “Rate of increase in LPL activity” value is on record as 23%. In addition, the “Rate of increase in LPL activity” value on LPL (lipoprotein lipase) [3] (amount of addition 30 μM) turned out to be 32%.
As to `COc1cc(OCc2ccc(Br)cc2F)ccc1-c1c[nH]c(-c2ccc(F)cc2)n1.Cl` [Example 57], the melting point is > 250 °C. Besides, the inhibition in vivo at 100 mg/kg in series [1] was 14%. The change in vivo at 100 mg/kg in series [2] is 184%. Moreover, the “Rate of body weight reduction (%)” value in series [4] was 17%. The “Rate of increase in LPL activity” value at LPL (lipoprotein lipase) [3] (amount of addition 10 μM) stood at 19%. Moreover, at LPL (lipoprotein lipase) [3] (amount of addition 30 μM), the “Rate of increase in LPL activity” value turned out to be 40%.
